Test results from patent US9096832B2, “Differentiation of human embryonic stem cells” (LifeScan, Inc., priority 2007, dated 2015).

System: H9 embryonic stem cells
Test: Microarray analysis of definitive endoderm stage cells on […] or MEFs +/- Wnt-3a (Table VI)
Assay type: cell-based, human
Conditions: low serum, on MEFS
Procedure: Controls for each group included cells plated on [sequence]—coated dishes and cultured in MEF-conditioned medium or cells plated on MEFs and cultured in ES medium. All groups contained three biological replicates and each biological replicate was repeated on two separate gene chips.
Sample preparation, hybridization, and image analysis were performed according to the Affymetrix Human Genome U133 Plus 2.0 Array. Following normalization and a log transformation, data analysis was performed using OmniViz® software (MA) and [sequence] […] Significant differences in gene expression between the samples were evaluated using analysis of variance and an F-test with adjusted P-value (Benjamini and Hochberg correction) of less-than or equal to 0.05. Only genes with a present call in at least one group were included in the analysis.

How did the “Intensity (log): Homo sapiens haptoglobin-related protein (HPR), mRNA” value turn out when “Activin A: activin A (a member of the TGFβ superfamily), R&D Systems; 'w/o wnt' in Table VII = 100 ng/ml Activin A without Wnt3a” was run?
Its value is −1.196.

What about the “Intensity (log): Homo sapiens homeobox protein goosecoid mRNA, complete cds” value of the same substance?
The value was 1.894.

What about the “Intensity (log): Homo sapiens hypothetical protein FLJ10718 (FLJ10718), mRNA” value of the same substance?
The value was 5.552.

What about the “Intensity (log): Homo sapiens hypothetical protein FLJ10970 (FLJ10970), mRNA” value of the same substance?
Its value is 3.02.

What about the “Intensity (log): Homo sapiens hypothetical protein FLJ11316 (FLJ11316), mRNA” value of the same substance?
Its value is 0.7553.

What about the “Intensity (log): Homo sapiens hypothetical protein FLJ22252 similar to SRY-box containing gene 17 (FLJ22252), mRNA” value of the same substance?
Its value is 4.5979.

And the “Intensity (log): Homo sapiens lumican (LUM), mRNA” value?
The value was 0.9488.

What about the “Intensity (log): Homo sapiens mRNA for GATA-6, complete cds” value of the same substance?
Its value is 5.343.

What about the “Intensity (log): Homo sapiens mRNA for KIAA1409 protein, partial cds” value of the same substance?
The value was −1.032.

What about the “Intensity (log): Homo sapiens mRNA; cDNA DKFZp434D0818 (from clone DKFZp434D0818)” value of the same substance?
The value was −0.3056.

What about the “Intensity (log): Homo sapiens mRNA; cDNA DKFZp586J0624 (from clone DKFZp586J0624); complete cds” value of the same substance?
Its value is 3.699.

What about the “Intensity (log): Homo sapiens presenilin stabilization factor b (PSF) mRNA, complete cds; alternatively spliced” value of the same substance?
Its value is 0.5675.

What about the “Intensity (log): Homo sapiens reserved (KCNK12), mRNA” value of the same substance?
Its value is 3.78.

And the “Intensity (log): Homo sapiens retinoid X receptor, gamma (RXRG), mRNA” value?
Its value is −0.3204.

And the “Intensity (log): Homo sapiens sema domain, immunoglobulin domain (Ig), short basic domain, secreted, (semaphorin) 3E (SEMA3E), mRNA” value?
Its value is 1.276.

And the “Intensity (log): Homo sapiens sema domain, seven thrombospondin repeats (type 1 and type 1-like), transmembrane domain (TM) and short cytoplasmic domain, (semaphorin) 5A (SEMA5A), mRNA” value?
Its value is 1.487.

And the “Intensity (log): Homo sapiens solute carrier family 21 (prostaglandin transporter), member 2 (SLC21A2), mRNA” value?
Its value is 2.433.

What about the “Intensity (log): Homo sapiens type VI collagen alpha 2 chain precursor (COL6A2) mRNA, complete cds, alternatively spliced” value of the same substance?
Its value is 2.845.

What about the “Intensity (log): Homo sapiens, alpha-1 (VI) collagen” value of the same substance?
Its value is −2.269.

And the “Intensity (log): Homo sapiens, clone MGC: 4655, mRNA, complete cds” value?
The value was 2.476.

And the “Intensity (log): Human (clone 8B1) Br-cadherin mRNA, complete cds” value?
The value was −1.026.

What about the “Intensity (log): Human (clone HSY3RR) neuropeptide Y receptor (NPYR) mRNA, complete cds” value of the same substance?
The value was 5.48.

What about the “Intensity (log): Human DNA sequence from clone RP1-181C24 on chromosome 6p11.1-12.2. Contains the 3 end of the BMP5 gene for bone morphogenetic protein 5, ESTs, STSs and GSSs” value of the same substance?
Its value is −0.3731.

What about the “Intensity (log): Human Fritz mRNA, complete cds” value of the same substance?
The value was 3.915.

What about the “Intensity (log): Human dipeptidyl peptidase IV (CD26) mRNA, complete cds” value of the same substance?
Its value is −1.256.

What about the “Intensity (log): Human glycophorin HeP2 mRNA, partial cds” value of the same substance?
The value was 0.2335.

And the “Intensity (log): Human link protein mRNA, complete cds” value?
The value was −1.263.

And the “Intensity (log): Human mRNA for alpha-1 type II collagen” value?
The value was −0.3802.

What about the “Intensity (log): Human mRNA for apolipoprotein AI (apo AI)” value of the same substance?
Its value is 2.497.

And the “Intensity (log): Human prostatic secretory protein 57 mRNA, complete cds” value?
Its value is −0.4077.

And the “Intensity (log): KIAA1462 protein” value?
Its value is 0.4371.

And the “Intensity (log): MCP-1 = monocyte chemotactic protein (human, aortic endothelial cells, mRNA, 661 nt)” value?
Its value is 2.955.

What about the “Intensity (log): Rho GDP dissociation inhibitor (GDI) alpha” value of the same substance?
Its value is −2.582.

What about the “Intensity (log): WAS protein family, member 2” value of the same substance?
The value was −1.06.

What about the “Intensity (log): collagen, type IX, alpha 2” value of the same substance?
The value was 2.935.

And the “Intensity (log): collagen, type VI, alpha 1” value?
The value was 0.6042.

What about the “Intensity (log): hepatocyte nuclear factor 4, alpha” value of the same substance?
The value was 0.4452.

What about the “Intensity (log): homeo box HB9” value of the same substance?
Its value is 1.631.

What about the “Intensity (log): hypothetical protein FLJ21032” value of the same substance?
The value was 2.618.

What about the “Intensity (log): hypothetical protein FLJ23091” value of the same substance?
The value was 3.78.

What about the “Intensity (log): microfibrillar-associated protein 4” value of the same substance?
Its value is −0.6009.

What about the “Intensity (log): myristoylated alanine-rich protein kinase C substrate (MARCKS, 80K-L)” value of the same substance?
The value was 0.3357.

What about the “Intensity (log): neuropilin 1” value of the same substance?
Its value is −1.9667.

And the “Intensity (log): noggin” value?
Its value is 1.33.

What about the “Intensity (log): splicing factor, arginine serine-rich 5” value of the same substance?
Its value is 4.272.

What about the “Intensity (log): stanniocalcin 1” value of the same substance?
Its value is 6.143.

And the “Intensity (log): ESTs” value (r13)?
Its value is −4.27.

What about the “Intensity (log): ESTs” value (r16) of the same substance?
The value was −2.6475.

And the “Intensity (log): solute carrier family 16 (monocarboxylic acid transporters), member 3” value (r20)?
The value was 0.279.

What about the “Intensity (log): Homo sapiens solute carrier family 16 (monocarboxylic acid transporters), member 3 (SLC16A3), mRNA” value (r30) of the same substance?
The value was 1.724.

What about the “Intensity (log): ESTs” value (r49) of the same substance?
Its value is 0.967.

What about the “Intensity (log): glycophorin B (includes Ss blood group)” value (r50) of the same substance?
Its value is −0.1297.

And the “Intensity (log): ESTs” value (r62)?
Its value is −0.2374.

And the “Intensity (log): Homo sapiens HNF-3beta mRNA for hepatocyte nuclear factor-3 beta, complete cds” value (r66)?
The value was 2.825.

What about the “Intensity (log): ESTs” value (r81) of the same substance?
Its value is −2.321.

What about the “Intensity (log): ESTs” value (r92) of the same substance?
Its value is 0.926.

And the “Intensity (log): ESTs” value (r98)?
Its value is −2.206.

What about the “Intensity (log): ESTs” value (r108) of the same substance?
Its value is −1.825.

What about the “Intensity (log): Homo sapiens phorbolin-like protein MDS019 (MDS019), mRNA” value (r121) of the same substance?
The value was 2.408.

And the “Intensity (log): ESTs” value (r129)?
Its value is 0.4204.

And the “Intensity (log): ESTs” value (r136)?
The value was 3.522.

And the “Intensity (log): ESTs” value (r137)?
Its value is 0.761.

What about the “Intensity (log): ESTs” value (r142) of the same substance?
Its value is 1.433.

And the “Intensity (log): ESTs” value (r145)?
Its value is 1.0501.

And the “Intensity (log): Cluster Incl. AB028021: Homo sapiens HNF-3beta mRNA for hepatocyte nuclear factor-3 beta, complete cds” value (r165)?
The value was 4.117.

And the “Intensity (log): hypothetical protein FLJ23403” value (r205)?
The value was −2.313.

What about the “Intensity (log): matrix metalloproteinase 14 (membrane-inserted)” value (r215) of the same substance?
The value was −0.5185.

And the “Intensity (log): Homo sapiens glycophorin B (includes Ss blood group) (GYPB), mRNA” value (r218)?
Its value is 0.1803.

What about the “Intensity (log): ESTs” value (r234) of the same substance?
Its value is 3.913.

What about the “Intensity (log): ESTs” value (r240) of the same substance?
The value was 3.125.

And the “Intensity (log): ESTs” value (r241)?
Its value is −0.5703.

And the “Intensity (log): KIAA0878 protein” value (r250)?
The value was 4.789.

And the “Intensity (log): ESTs” value (r260)?
Its value is 4.814.

And the “Intensity (log): Homo sapiens matrix metalloproteinase 14 (membrane-inserted) (MMP14), mRNA” value (r270)?
The value was −0.09689.

And the “Intensity (log): ESTs” value (r278)?
The value was 0.6202.

What about the “Intensity (log): ESTs” value (r290) of the same substance?
The value was 2.657.

And the “Intensity (log): ESTs” value (r301)?
Its value is 3.372.

What about the “Intensity (log): ESTs” value (r314) of the same substance?
The value was −0.2982.

And the “Intensity (log): Homo sapiens hypothetical protein FLJ23403 (FLJ23403), mRNA” value (r315)?
Its value is −1.004.

And the “Intensity (log): ESTs” value (r319)?
The value was −0.1895.

And the “Intensity (log): Homo sapiens KIAA0878 protein (KIAA0878), mRNA” value (r332)?
The value was 5.654.

And the “Intensity (log): phorbolin-like protein MDS019” value (r340)?
The value was 0.5035.

And the “Intensity (log): ESTs” value (r347)?
Its value is 3.749.

What about the “Intensity (log): ESTs” value (r376) of the same substance?
Its value is 0.8249.

What about the “Intensity (log): ESTs” value (r377) of the same substance?
Its value is −1.364.
